According to PMC8650577:
*1 amine or outer side, *2 acyl side, *3 side chain or, on linkers, in order; H or OH if unused. Where a SMILES comes first, the peptide text is derived from it. Bridges are numbered along the chain shown (N, C = ends). [ ]: non-standard residue; d: D form. Maleimide(3,4-diyl) = O=C1NC(=O)C([*:2])=C1[*:1]; hCys = N[C@@H](CCS)C(=O)O

How the values were obtained:
[1] = circular dichroism; details: 10 mM sodium phosphate; pH 7.2; 25 °C; 250 uM
[2] = Two-component bis-thiol stapling with 2,3-dibromomaleimide (200 uM), TCEP (100 uM); thioether formation followed at 395 nm; details: the molecule shown is the open-chain precursor, 50 mM aq. phosphate buffer pH 6.0, 0.1 mM, 20.0 °C, 1.0 h
[3] = Two-component i,i+4 bis-thiol stapling: TCEP (1.1 eq) reduction for 1 h, then 2,3-dibromomaleimide (1.1 eq) for 1 h; two S-C(maleimide) thioether bonds formed; details: the molecule shown is the open-chain precursor, MeCN/50 mM aq. ammonium acetate pH 7.4 (1:1), 3.3 mM, 14 steps

In the case of `CC(=O)N[C@H]1CSC2=C(SC[C@@H](C(N)=O)NC(=O)[C@H](C)NC(=O)[C@H](C)NC(=O)[C@H](C)NC1=O)C(=O)NC2=O`, the helicity [1] is reported as 25 rel %.

`CC(=O)N[C@@H](CCSC1=C(Br)C(=O)NC1=O)C(=O)N[C@@H](C)C(=O)N[C@@H](C)C(=O)N[C@@H](C)C(=O)N[C@@H](CCS)C(N)=O` [Ac-hCys-Ala-Ala-Ala-hCys-NH2] showed a ring closure, halflife ([2]; 21-membered ring) of 9 min and a ring closure, overall yield ([3]; 21-membered ring) of 17%.

For `CC(=O)N[C@@H](CSC1=C(Br)C(=O)NC1=O)C(=O)N[C@@H](C)C(=O)N[C@@H](C)C(=O)N[C@@H](C)C(=O)N[C@@H](CS)C(N)=O` [Ac-Cys-Ala-Ala-Ala-Cys-NH2], the ring closure, halflife ([2]; 19-membered ring) was 8 min and the ring closure, overall yield ([3]; 19-membered ring) was 21%.

`CC(=O)N[C@H](CSC1=C(Br)C(=O)NC1=O)C(=O)N[C@@H](C)C(=O)N[C@@H](C)C(=O)N[C@@H](C)C(=O)N[C@@H](CS)C(N)=O` [Ac-D-Cys-Ala-Ala-Ala-Cys-NH2] showed a ring closure, halflife ([2]; 19-membered ring) of 8 min and a ring closure, overall yield ([3]; 19-membered ring) of 7%.

Molecule `CC(=O)N[C@H]1CCSC2=C(SCC[C@@H](C(N)=O)NC(=O)[C@H](C)NC(=O)[C@H](C)NC(=O)[C@H](C)NC1=O)C(=O)NC2=O` (Ac-[hCys]AAA[hCys]-NH2; linker 1-5 via Maleimide(3,4-diyl)) has a helicity [1] of 13 rel %.

`CC(=O)N[C@H]1CSC2=C(SC[C@H](C(N)=O)NC(=O)[C@H](C)NC(=O)[C@H](C)NC(=O)[C@H](C)NC1=O)C(=O)NC2=O` gave a helicity [1] of 17 rel %.

`CC(=O)N[C@@H](CCSC1=C(Br)C(=O)NC1=O)C(=O)N[C@@H](C)C(=O)N[C@@H](C)C(=O)N[C@@H](C)C(=O)N[C@@H](CS)C(N)=O` [Ac-hCys-Ala-Ala-Ala-Cys-NH2] showed a ring closure, halflife ([2]; 20-membered ring) of 11 min and a ring closure, overall yield ([3]; 20-membered ring) of 18%.

`CC(=O)N[C@H](CSC1=C(Br)C(=O)NC1=O)C(=O)N[C@@H](C)C(=O)N[C@@H](C)C(=O)N[C@@H](C)C(=O)N[C@H](CS)C(N)=O` [Ac-D-Cys-Ala-Ala-Ala-D-Cys-NH2] gave a ring closure, halflife ([2]; 19-membered ring) of 10 min and a ring closure, overall yield ([3]; 19-membered ring) of 11%.

Work on `CC(=O)N[C@@H]1CSC2=C(SC[C@@H](C(N)=O)NC(=O)[C@H](C)NC(=O)[C@H](C)NC(=O)[C@H](C)NC1=O)C(=O)NC2=O` yielded a helicity [1] of 28 rel %.

In the case of `CC(=O)N[C@@H](CSC1=C(Br)C(=O)NC1=O)C(=O)N[C@@H](C)C(=O)N[C@@H](C)C(=O)N[C@@H](C)C(=O)N[C@@H](CCS)C(N)=O` [Ac-Cys-Ala-Ala-Ala-hCys-NH2], the ring closure, halflife ([2]; 20-membered ring) is reported as 13 min and the ring closure, overall yield ([3]; 20-membered ring) is reported as 4%.

Molecule `CC(=O)N[C@@H]1CSC2=C(SC[C@H](C(N)=O)NC(=O)[C@H](C)NC(=O)[C@H](C)NC(=O)[C@H](C)NC1=O)C(=O)NC2=O` has a helicity [1] of 13 rel %.

`CC(=O)N[C@H]1CSC2=C(SCC[C@@H](C(N)=O)NC(=O)[C@H](C)NC(=O)[C@H](C)NC(=O)[C@H](C)NC1=O)C(=O)NC2=O` (Ac-CAAA[hCys]-NH2; linker 1-5 via Maleimide(3,4-diyl)) showed a helicity [1] of 48 rel %.

With `CC(=O)N[C@H]1CCSC2=C(SC[C@@H](C(N)=O)NC(=O)[C@H](C)NC(=O)[C@H](C)NC(=O)[C@H](C)NC1=O)C(=O)NC2=O` (Ac-[hCys]AAAC-NH2; linker 1-5 via Maleimide(3,4-diyl)) the helicity [1] was 11 rel %.

With `CC(=O)N[C@@H](CSC1=C(Br)C(=O)NC1=O)C(=O)N[C@@H](C)C(=O)N[C@@H](C)C(=O)N[C@@H](C)C(=O)N[C@H](CS)C(N)=O` [Ac-Cys-Ala-Ala-Ala-D-Cys-NH2] the ring closure, halflife ([2]; 19-membered ring) was 8 min and the ring closure, overall yield ([3]; 19-membered ring) was 21%.
